Measured values published in US10336739B2, “4-hydroxy-3-(heteroaryl)pyridine-2-one APJ agonists” (BRISTOL-MYERS SQUIBB COMPANY, priority 2015, dated 2019).

molecular target: human APJ receptor (Homo sapiens (Human), UniProt P35414); experiment: Intracellular cAMP accumulation assay (APJ hcAMP, HTRF); type: cell-based; details: HEK293 cells stably expressing human APJ receptor; inhibition of forskolin-mediated cAMP production; read-out: Human APJ cAMP EC50 Potency range
Summary of the method: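 HEK293 cells stably expressing human APJ, 5,000 per well, exposed to compound with […] IBMX and 2 μM forskolin for 30 minutes at room temperature. cAMP measured by HTRF after lysis and 60 min detection incubation. EC50 from sigmoidal variable-slope fits of inhibition of forskolin-induced cAMP, quantified against a cAMP standard curve.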

Sequence of human APJ receptor (P35414 whole entry): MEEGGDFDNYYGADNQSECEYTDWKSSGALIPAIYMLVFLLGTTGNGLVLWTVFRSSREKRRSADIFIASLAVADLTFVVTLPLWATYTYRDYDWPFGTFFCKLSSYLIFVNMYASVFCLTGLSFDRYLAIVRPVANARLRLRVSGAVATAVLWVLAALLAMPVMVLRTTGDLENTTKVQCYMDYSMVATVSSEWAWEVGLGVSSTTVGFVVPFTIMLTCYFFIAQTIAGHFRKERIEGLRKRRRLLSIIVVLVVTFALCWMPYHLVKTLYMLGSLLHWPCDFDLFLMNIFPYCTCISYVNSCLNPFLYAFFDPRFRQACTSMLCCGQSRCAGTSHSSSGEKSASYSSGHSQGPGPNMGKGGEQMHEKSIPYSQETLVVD

| Compound | EC50 |
| --- | --- |
| CCOCc1nc(O)c(-c2nnc(Cn3ccccc3=O)o2)c(O)c1-c1c(OC)cc(F)cc1OC [Example 212, 1-({5-[6-(ethoxymethyl)-5-(4-fluoro-2,6-dimethoxyphenyl)-2,4-dihydroxypyridin-3-yl]-1,3,4-oxadiazol-2-yl}methyl)-1,2-dihydropyridin-2-one] | 10 to 100 nM |
| CCCCc1nc(O)c(-c2nnc(Cc3noc4ccccc34)o2)c(O)c1-c1c(C)cccc1C [Example 224, 3-[5-(1,2-benzoxazol-3-ylmethyl)-1,3,4-oxadiazol-2-yl]-6-butyl-5-(2,6-dimethylphenyl)pyridine-2,4-diol] | 0.01 to 10 nM |

Further lines, results first:

| EC50 | Compound |
| --- | --- |
| 10 to 100 nM | CCCCc1nc(O)c(-c2nnc(Cc3nnc(-c4ccc(Cl)cc4)o3)o2)c(O)c1-c1c(OC)cccc1OC [Example 205, 6-butyl-3-(5-{[5-(4-chlorophenyl)-1,3,4-oxadiazol-2-yl]methyl}-1,3,4-oxadiazol-2-yl)-5-(2,6-dimethoxyphenyl)pyridine-2,4-diol] |
| 10 to 100 nM | CCOCc1nc(O)c(-c2nnc(Cc3ccc(Cl)cc3)o2)c(O)c1-c1c(OC)cncc1OC [Example 217, 3-{5-[(4-chlorophenyl)methyl]-1,3,4-oxadiazol-2-yl}-5-(3,5-dimethoxypyridin-4-yl)-6-(ethoxymethyl)pyridine-2,4-diol] |
| 0.01 to 10 nM | CCCCc1nc(O)c(-c2nnc(Cc3noc4cccnc34)o2)c(O)c1-c1c(OC)cccc1OC [Example 227, 6-butyl-5-(2,6-dimethoxyphenyl)-3-(5-{[1,2]oxazolo[4,5-b]pyridin-3-ylmethyl}-1,3,4-oxadiazol-2-yl)pyridine-2,4-diol] |

same assay, conditions: HEK293 cells stably expressing human APJ receptor; inhibition of forskolin-mediated cAMP production; read-out: hAPJ cAMP EC50 Potency range

| Compound | EC50 |
| --- | --- |
| CCCCc1nc(O)c(-c2nnc(CC(=O)NCC(F)F)o2)c(O)c1-c1c(OC)cccc1OC [Example 191, 2-{5-[6-butyl-5-(2,6-dimethoxyphenyl)-2,4-dihydroxypyridin-3-yl]-1,3,4-oxadiazol-2-yl}-N-(2,2-difluoroethyl) acetamide] | 0.01 to 10 nM |
| CCCCc1nc(O)c(-c2nnc(CC(=O)NCCOC)o2)c(O)c1-c1c(OC)cccc1OC [Example 193, 2-{5-[6-butyl-5-(2,6-dimethoxyphenyl)-2,4-dihydroxypyridin-3-yl]-1,3,4-oxadiazol-2-yl}-N-(2-methoxyethyl) acetamide] | 10 to 100 nM |
| CCCCc1nc(O)c(-c2nnc(CC(=O)N3CCCC3)o2)c(O)c1-c1c(OC)cccc1OC [Example 194, 2-{5-[6-butyl-5-(2,6-dimethoxyphenyl)-2,4-dihydroxypyridin-3-yl]-1,3,4-oxadiazol-2-yl}-1-(pyrrolidin-1-yl)ethan-1-one] | 0.01 to 10 nM |
| CCCCc1nc(O)c(-c2nnc(CC(=O)N3CCCCC3)o2)c(O)c1-c1c(OC)cccc1OC [Example 195, 2-{5-[6-butyl-5-(2,6-dimethoxyphenyl)-2,4-dihydroxypyridin-3-yl]-1,3,4-oxadiazol-2-yl}-1-(piperidin-1-yl)ethan-1-one] | 0.01 to 10 nM |
| CCCCc1nc(O)c(-c2nnc(CC(=O)N3CCOCC3)o2)c(O)c1-c1c(OC)cccc1OC [Example 196, 2-{5-[6-butyl-5-(2,6-dimethoxyphenyl)-2,4-dihydroxypyridin-3-yl]-1,3,4-oxadiazol-2-yl}-1-(morpholin-4-yl)ethan-1-one] | 0.01 to 10 nM |
| CCCCNC(=O)Cc1nnc(-c2c(O)nc(CCCC)c(-c3c(OC)cccc3OC)c2O)o1 [Example 197, N-butyl-2-{5-[6-butyl-5-(2,6-dimethoxyphenyl)-2,4-dihydroxypyridin-3-yl]-1,3,4-oxadiazol-2-yl}acetamide] | 0.01 to 10 nM |
| CCCCCNC(=O)Cc1nnc(-c2c(O)nc(CCCC)c(-c3c(OC)cccc3OC)c2O)o1 [Example 198, 2-{5-[6-butyl-5-(2,6-dimethoxyphenyl)-2,4-dihydroxypyridin-3-yl]-1,3,4-oxadiazol-2-yl}-N-pentylacetamide] | 10 to 100 nM |
| CCCCc1nc(O)c(-c2nnc(CC(=O)N3CC(F)(F)C3)o2)c(O)c1-c1c(OC)cccc1OC [Example 200, 2-{5-[6-butyl-5-(2,6-dimethoxyphenyl)-2,4-dihydroxypyridin-3-yl]-1,3,4-oxadiazol-2-yl}-1-(3,3-difluoroazetidin-1-yl)ethan-1-one] | 0.01 to 10 nM |
| CCOCc1nc(O)c(-c2nnc(Cc3noc4ccccc34)o2)c(O)c1-c1c(OC)cc(F)cc1OC [Example 213, 3-[5-(1,2-benzoxazol-3-ylmethyl)-1,3,4-oxadiazol-2-yl]-6-(ethoxymethyl)-5-(4-fluoro-2,6-dimethoxyphenyl) pyridine-2,4-diol] | 0.01 to 10 nM |
| CCOCc1nc(O)c(-c2nnc(CN3CCCC3=O)o2)c(O)c1-c1c(OC)cc(F)cc1OC [Example 215, 1-({5-[6-(ethoxymethyl)-5-(4-fluoro-2,6-dimethoxyphenyl)-2,4-dihydroxypyridin-3-yl]-1,3,4-oxadiazol-2-yl}methyl) pyrrolidin-2-one] | 10 to 100 nM |
| CCOCc1nc(O)c(-c2nnc(Cc3ccc(Cl)nc3)o2)c(O)c1-c1c(OC)cc(F)cc1OC [Example 216, 3-{5-[(6-chloropyridin-3-yl)methyl]-1,3,4-oxadiazol-2-yl}-6-(ethoxymethyl)-5-(4-fluoro-2,6-dimethoxyphenyl) pyridine-2,4-diol] | 0.01 to 10 nM |
| CCCCc1nc(O)c(-c2nnc(Cc3noc4ccccc34)o2)c(O)c1-c1c(C)cc(C)cc1C [Example 225, 3-[5-(1,2-benzoxazol-3-ylmethyl)-1,3,4-oxadiazol-2-yl]-6-butyl-5-(2,4,6-trimethylphenyl) pyridine-2,4-diol] | 10 to 100 nM |
| CCCCc1nc(O)c(-c2nnc(Cc3noc4ccccc34)o2)c(O)c1-c1c(CC)cccc1CC [Example 226, 3-[5-(1,2-benzoxazol-3-ylmethyl)-1,3,4-oxadiazol-2-yl]-6-butyl-5-(2,6-diethylphenyl) pyridine-2,4-diol] | 0.01 to 10 nM |

More lines, now with the values ahead:

| EC50 | Compound |
| --- | --- |
| 0.01 to 10 nM | CCCCc1nc(O)c(-c2nnc(CC(=O)NCCC)o2)c(O)c1-c1c(OC)cccc1OC [Example 189, 2-{5-[6-butyl-5-(2,6-dimethoxyphenyl)-2,4-dihydroxypyridin-3-yl]-1,3,4-oxadiazol-2-yl}-N-propylacetamide] |
| 0.01 to 10 nM | CCCCc1nc(O)c(-c2nnc(CC(=O)NCCF)o2)c(O)c1-c1c(OC)cccc1OC [Example 190, 2-{5-[6-butyl-5-(2,6-dimethoxyphenyl)-2,4-dihydroxypyridin-3-yl]-1,3,4-oxadiazol-2-yl}-N-(2-fluoroethyl) acetamide] |
| 0.01 to 10 nM | CCCCc1nc(O)c(-c2nnc(CC(=O)NCC(F)(F)F)o2)c(O)c1-c1c(OC)cccc1OC [Example 192, 2-{5-[6-butyl-5-(2,6-dimethoxyphenyl)-2,4-dihydroxypyridin-3-yl]-1,3,4-oxadiazol-2-yl}-N-(2,2,2-trifluoroethyl) acetamide] |
| 0.01 to 10 nM | CCCCc1nc(O)c(-c2nnc(CC(=O)N3CC(F)C3)o2)c(O)c1-c1c(OC)cccc1OC [Example 199, 2-{5-[6-butyl-5-(2,6-dimethoxyphenyl)-2,4-dihydroxypyridin-3-yl]-1,3,4-oxadiazol-2-yl}-1-(3-fluoroazetidin-1-yl)ethan-1-one] |
| 0.01 to 10 nM | CCCCc1nc(O)c(-c2nnc(CC(=O)Nc3nccs3)o2)c(O)c1-c1c(OC)cccc1OC [Example 201, 2-{5-[6-butyl-5-(2,6-dimethoxyphenyl)-2,4-dihydroxypyridin-3-yl]-1,3,4-oxadiazol-2-yl}-N-(1,3-thiazol-2-yl)acetamide] |
| 10 to 100 nM | CCCCc1nc(O)c(-c2nc(Cc3ccc(Cl)cc3)no2)c(O)c1-c1c(OC)cccc1OC [Example 203, 6-butyl-3-{3-[(4-chlorophenyl)methyl]-1,2,4-oxadiazol-5-yl}-5-(2,6-dimethoxyphenyl) pyridine-2,4-diol] |
| 0.01 to 10 nM | CCCCc1nc(O)c(-c2nnc(Cc3nnc(-c4ccncc4)o3)o2)c(O)c1-c1c(OC)cccc1OC [Example 206, 6-butyl-5-(2,6-dimethoxyphenyl)-3-(5-{[5-(pyridin-4-yl)-1,3,4-oxadiazol-2-yl]methyl}-1,3,4-oxadiazol-2-yl)pyridine-2,4-diol] |
| 0.01 to 10 nM | CCCCc1nc(O)c(-c2nnc(Cc3nnc(-c4ccccn4)o3)o2)c(O)c1-c1c(OC)cccc1OC [Example 207, 6-butyl-5-(2,6-dimethoxyphenyl)-3-(5-{[5-(pyridin-2-yl)-1,3,4-oxadiazol-2-yl]methyl}-1,3,4-oxadiazol-2-yl)pyridine-2,4-diol] |
| 0.01 to 10 nM | CCCCc1nc(O)c(-c2nnc(Cc3nnc(-c4ccccc4Cl)o3)o2)c(O)c1-c1c(OC)cccc1OC [Example 208, 6-butyl-3-(5-{[5-(2-chlorophenyl)-1,3,4-oxadiazol-2-yl]methyl}-1,3,4-oxadiazol-2-yl)-5-(2,6-dimethoxyphenyl) pyridine-2,4-diol] |
| 0.01 to 10 nM | CCCCc1nc(O)c(-c2nnc(Cc3nnc(Cc4ccccc4)o3)o2)c(O)c1-c1c(OC)cccc1OC [Example 209, 3-{5-[(5-benzyl-1,3,4-oxadiazol-2-yl)methyl]-1,3,4-oxadiazol-2-yl}-6-butyl-5-(2,6-dimethoxyphenyl) pyridine-2,4-diol] |
| 10 to 100 nM | CCCCc1nc(O)c(-c2nnc(Cc3nnc(-c4cccc(Cl)c4)o3)o2)c(O)c1-c1c(OC)cccc1OC [Example 210, 6-butyl-3-(5-{[5-(3-chlorophenyl)-1,3,4-oxadiazol-2-yl]methyl}-1,3,4-oxadiazol-2-yl)-5-(2,6-dimethoxyphenyl) pyridine-2,4-diol] |
| 10 to 100 nM | CCCCc1nc(O)c(-c2nnc(Cc3nnc(-c4cccnc4)o3)o2)c(O)c1-c1c(OC)cccc1OC [Example 211, 6-butyl-5-(2,6-dimethoxyphenyl)-3-(5-{[5-(pyridin-3-yl)-1,3,4-oxadiazol-2-yl]methyl}-1,3,4-oxadiazol-2-yl)pyridine-2,4-diol] |
| 0.01 to 10 nM | CCOCc1nc(O)c(-c2nnc(Cc3ccc(Cl)cc3)o2)c(O)c1-c1c(OC)cc(F)cc1OC [Example 214, 3-{5-[(4-chlorophenyl)methyl]-1,3,4-oxadiazol-2-yl}-6-(ethoxymethyl)-5-(4-fluoro-2,6-dimethoxyphenyl) pyridine-2,4-diol] |
